ChEMBL document CHEMBL1152083, “Structure-activity studies of nonmacrocyclic rapamycin derivatives” (Bioorg Med Chem Lett, 1993)
The source made the active and inactive calls. No cut-off for these calls is given here.

Tests used:
[1] = species on record: Mus musculus; assay: In vitro immunosuppressive activity by splenocyte mitogenesis assay in spleen cells from BDF1 female mice at 1 pM to 10 uM concentration; not active; type: functional, cell-based
[2] = Binding affinity for FK506 binding protein; conditions: read-out: Ki app
[3] = Binding affinity for FK506 binding protein; value ranges from 2-6 nM; conditions: read-out: Ki app
[4] = species on record: Mus musculus; assay: In vitro immunosuppressive activity by splenocyte mitogenesis assay in spleen cells from BDF1 female mice at 1 pM to 10 uM concentration; type: functional, cell-based

**Q.** For COCC(=O)[C@H](C)C[C@H](C)\C=C/C=C/C=C(\C)[C@H](C[C@@H]1CC[C@@H](C)[C@](O)(C(=O)C(=O)N2CCCC[C@H]2C(=O)OCCCc2ccc(OC)c(OC)c2)O1)OC, which Activity [1] is on record?
**A.** inactive

**Q.** What about the Ki [2] of the same molecule?
**A.** 43 nM

**Q.** Which Activity [1] does the source give for CO[C@@H](C[C@@H]1CC[C@@H](C)[C@](O)(C(=O)C(=O)N2CCCC[C@H]2C(=O)OCc2ccccc2)O1)/C(C)=C/C=C/C=C\[C@@H](C)C[C@@H](C)C(=O)[C@H](OC)[C@H](O)/C(C)=C/[C@@H](C)C(=O)/C=C/[C@H](C)C[C@@H]1CC[C@@H](O)[C@H](OC)C1 here?
**A.** inactive

**Q.** What about the Ki [3] of the same molecule?
**A.** 2 nM

**Q.** Which results are given for CO[C@H]1C[C@@H]2CC[C@@H](C)[C@@](O)(O2)C(=O)C(=O)N2CCCC[C@H]2C(=O)O[C@H]([C@H](C)C[C@@H]2CC[C@@H](O)[C@H](OC)C2)CC(=O)[C@H](C)/C=C(\C)[C@@H](O)[C@@H](OC)C(=O)[C@H](C)C[C@H](C)/C=C/C=C/C=C/1C [SIROLIMUS]?
**A.** IC50 [4]: 1 nM; Ki [2]: 0.5 nM

**Q.** What does the source list for COCC(=O)[C@H](C)C[C@H](C)\C=C/C=C/C=C(\C)[C@H](C[C@@H]1CC[C@@H](C)[C@](O)(C(=O)C(=O)N2CCCC[C@H]2C(=O)NCCCc2ccccc2)O1)OC?
**A.** Activity [1]: inactive; Ki [2]: 32 nM

**Q.** With CCC(C)(C)C(=O)C(=O)N1CCCC[C@H]1C(=O)O[C@@H](CC(=O)[C@H](C)/C=C(\C)[C@@H](O)[C@@H](OC)C(=O)[C@H](C)C[C@H](C)\C=C/C=C/C=C(\C)[C@H](C[C@@H]1CC[C@@H](C)C(=O)O1)OC)[C@H](C)C[C@@H]1CC[C@@H](O)[C@H](OC)C1 as the molecule, how does the Activity [1] read?
**A.** inactive

**Q.** What about the Ki [2] of the same molecule?
**A.** 20 nM

**Q.** What does the source list for COCC(=O)[C@H](C)C[C@H](C)\C=C/C=C/C=C(\C)[C@H](C[C@@H]1CC[C@@H](C)[C@](O)(C(=O)C(=O)N2CCCC[C@H]2C(=O)OC/C=C/c2ccccc2)O1)OC?
**A.** Activity [1]: inactive; Ki [2]: 31 nM

**Q.** What does the source list for COCC(=O)[C@H](C)C[C@H](C)\C=C/C=C/C=C(\C)[C@H](C[C@@H]1CC[C@@H](C)[C@](O)(C(=O)C(=O)N2CCCC[C@H]2C(=O)OC(C)C)O1)OC?
**A.** Activity [1]: inactive; Ki [2]: 51 nM

**Q.** What does the source list for COCC(=O)[C@H](C)C[C@H](C)\C=C/C=C/C=C(\C)[C@H](C[C@@H]1CC[C@@H](C)[C@](O)(C(=O)C(=O)N2CCCC[C@H]2C(=O)O[C@@H](CC(=O)[C@H](C)/C=C(\C)C=O)[C@H](C)C[C@@H]2CC[C@@H](O)[C@H](OC)C2)O1)OC?
**A.** Activity [1]: inactive; Ki [2]: 4 nM

**Q.** Which results are given for COCC(=O)[C@H](C)C[C@H](C)\C=C/C=C/C=C(\C)[C@H](C[C@@H]1CC[C@@H](C)[C@](O)(C(=O)C(=O)N2CCCC[C@H]2C(=O)OC)O1)OC?
**A.** Activity [1]: inactive; Ki [2]: 12 nM

**Q.** Which Activity [1] does the source give for COCC(=O)[C@H](C)C[C@H](C)\C=C/C=C/C=C(\C)[C@H](C[C@@H]1CC[C@@H](C)[C@](O)(C(=O)C(=O)N2CCCC[C@H]2C(=O)OCc2ccccc2)O1)OC here?
**A.** inactive

**Q.** What about the Ki [2] of the same molecule?
**A.** 15 nM

**Q.** With COCC(=O)[C@H](C)C[C@H](C)\C=C/C=C/C=C(\C)[C@H](C[C@@H]1CC[C@@H](C)[C@](O)(C(=O)C(=O)N2CCCC[C@H]2C(=O)O)O1)OC as the molecule, how does the Activity [1] read?
**A.** inactive

**Q.** And the Ki [2]?
**A.** 500 nM

**Q.** What does the source list for COC(=O)[C@@H]1CCCCN1C(=O)C(=O)[C@]1(O)O[C@H](C[C@H](OC)/C(C)=C/C=C/C=C\[C@@H](C)C[C@@H](C)C(=O)[C@H](OC)[C@H](O)/C(C)=C/[C@@H](C)C(=O)/C=C/[C@H](C)C[C@@H]2CC[C@@H](O)[C@H](OC)C2)CC[C@H]1C?
**A.** Activity [1]: inactive; Ki [2]: 29 nM

**Q.** What does the source list for COCC(=O)[C@H](C)C[C@H](C)\C=C/C=C/C=C(\C)[C@H](C[C@@H]1CC[C@@H](C)[C@](O)(C(=O)C(=O)N2CCCC[C@H]2C(=O)OC(C)c2ccccc2)O1)OC (stereo partly drawn)?
**A.** Activity [1]: inactive; Ki [2]: 41 nM

**Q.** With COCC(=O)[C@H](C)C[C@H](C)\C=C/C=C/C=C(\C)[C@H](C[C@@H]1CC[C@@H](C)[C@](O)(C(=O)C(=O)N2CCCC[C@H]2C(=O)NCc2ccccc2)O1)OC as the molecule, how does the Activity [1] read?
**A.** inactive

**Q.** What about the Ki [2] of the same molecule?
**A.** 110 nM
